Laboratory results: article PMC12257413, “Discovery of a Novel sp^3‑Rich M1 Positive Allosteric Modulators (PAMs) Chemotype via Scaffold Hopping” (ACS Medicinal Chemistry Letters, 2025)
Residue numbers refer to the chain shown, from its start.

How the values were obtained:
[1] = target: T1, rat muscarinic receptor subtype 1 (M1) (Rattus norvegicus, UniProt P08482); test: Calcium mobilization assay in rM1-CHO cells, PAM activity with EC20 acetylcholine; format: cell-based; settings: for EC50: read-out: rM1 pEC50 ± SEM (converted)
T1 construct: expressed in transfected cells
T1 sequence (P08482 1-460): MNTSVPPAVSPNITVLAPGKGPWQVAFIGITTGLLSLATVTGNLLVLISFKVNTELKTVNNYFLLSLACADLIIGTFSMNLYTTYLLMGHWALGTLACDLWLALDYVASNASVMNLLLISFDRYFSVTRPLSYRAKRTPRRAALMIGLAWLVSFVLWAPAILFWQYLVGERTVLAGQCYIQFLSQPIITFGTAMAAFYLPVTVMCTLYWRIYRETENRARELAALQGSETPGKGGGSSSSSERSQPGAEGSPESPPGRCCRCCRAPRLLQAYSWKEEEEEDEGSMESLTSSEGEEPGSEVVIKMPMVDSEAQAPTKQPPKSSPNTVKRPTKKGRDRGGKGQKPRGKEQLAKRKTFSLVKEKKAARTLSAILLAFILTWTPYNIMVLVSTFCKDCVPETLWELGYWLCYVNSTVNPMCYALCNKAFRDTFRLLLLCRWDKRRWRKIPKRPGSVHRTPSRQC
Experimental: (§1) page 2: Procedures for Biological Experiments Calcium mobilization assays: To measure the functional activity of positive allosteric modulator (PAM) compounds in a cellular assay, human or rat muscarinic receptor subtype 1 (M1) was stably expressed in the Chinese hamster ovary (CHO) cells to evoke an increase in intracellular calcium to an EC20 concentration of acetylcholine (ACh) agonist. The stable M1-CHO cells were cultured in F12 medium containing 10% fetal bovine serum, 20 mM HEPES, 100 units/mL antibiotics/antimycotic, 0.5 mg/ml G418. All reagents used were from Life Technologies (Carlsbad, CA) unless otherwise noted. Briefly, the day before the assay, stable M1-CHO cells (15,000 cells/20 μL/well) were plated in black-walled, clear-bottomed, 384 well plates (Greiner Bio-One, Monroe, NC) in the culture medium without G418, and then incubated overnight at 37 °C in the presence of 5% CO2. The next day, calcium assay buffer (Hank’s balanced salt solution (HBSS), 20 mM HEPES, 2.5 mM Probenecid, 4.16 mM sodium bicarbonate (Sigma-Aldrich, St. Louis, MO) was prepared to dilute […] calcium indicator dye. […] curves in DMSO using the Bravo Liquid Handler (Agilent, Santa Clara, CA), transferred to a 384 well daughter plates using an Echo acoustic liquid handler (Beckman Coulter, Indianapolis, Indiana), and diluted in assay Buffer to a 2X final concentration. The agonist plates were prepared using acetylcholine (ACh, Sigma-Aldrich, St. Louis, MO) concentrations for the EC20 and ECMAX responses by diluting in assay buffer to a 5X final concentration. The 2X dye solution (2.3 µM) was prepared by mixing a 2.3 mM Fluo-4-AM stock in DMSO with 10% (w/v) pluronic acid F- 127 in a 1:1 ratio in assay buffer. Using a microplate washer (BioTek, Winooski, VT), cells were washed with assay buffer for 3 times to remove medium. After the final wash, 20 μL of assay buffer remained in the cell plates. Immediately, 20 μL of the 2X dye solution (final 1.15 µM) was added to each well of the cell plate using a Multidrop Combi dispenser (Thermo Fisher, Waltham, MA). After cells were incubated with the dye solutions for 45 min at 37 °C in the presence of 5% CO2, the dye solutions were removed and replaced with assay buffer using a microplate washer, leaving 20 μL of assay buffer in the cell plate. The compound, agonist, and cell plates were placed inside the Functional Drug Screening System uCell (FDSS uCell, Hamamatsu, Japan) to measure the calcium flux. The triple add protocol was used to measure Ca kinetics; Compound, ACh for EC20, and ACh for ECMAX adds in an order. Briefly, after establishment of a fluorescence baseline S2 page 3: for 2 seconds (excitation, 480 nm; emission, 530 nm), first add occurred by adding 20 µL of test compound to the cells, and the response was measured for 140 seconds. This is followed by second add; 10 µL (5X) of an EC20 concentration of ACh agonist was added to the cells, and the response of the cells was measured for 125 seconds. Immediately, the third add occurred by adding 12 ul assay buffer or 5X of an EC max concentration of ACh and the response of the cells was measured for 90 seconds. Assay buffer was added to the wells that incubated with compounds followed by EC20 concentration of ACh. Agonists containing ECmax concentration of ACh were added to the wells that incubated with DMSO and assay buffer from the 1st and 2nd adds to measure maximum Ca responses (ECmax). Calcium fluorescence was recorded as fold over basal fluorescence and raw data were normalized to the maximal response to ACh agonist. […]

[2] = target: T2, human muscarinic receptor subtype 1 (M1) (Homo sapiens, UniProt P11229); test: Calcium mobilization assay in hM1-CHO cells, PAM activity with EC20 acetylcholine; format: cell-based; settings: for EC50: read-out: hM1 pEC50 ± SEM (converted)
T2 sequence (P11229 1-460): T1 sequence (P08482 1-460) with V5A, S254T, S309P, K320R, G337A, V413I
Experimental: as §1

Row | rM1 %ACh Max ± SEM [1] [%ACh Max] | EC50 [1] [µM] | hM1 %ACh Max ± SEM [2] [%ACh Max] | EC50 [2] [µM] | rM1 pEC50 ± SEM [1] | hM1 pEC50 ± SEM [2] | Compound
1 | 51 ± 3.9 | > 10 | 48 ± 7.4 | > 10 |  |  | Cn1cc(-c2ccc(Cc3cc(C(=O)N[C@H]4CC[C@@H]4O)nn3-c3ccccc3)cc2)cn1 [17d]
2 |  |  |  |  | Inactive (n = 3) Inactive (n = 3) | Inactive (n = 3) Inactive (n = 3) | CC(C)n1nc(C(=O)N[C@H]2CCOC[C@@H]2O)cc1Cc1ccc(-c2cnn(C)c2)cc1 [17i]
3 | 84 ± 4.6 | 1.2 | 74 ± 0.6 | 2 |  |  | Cn1cc(-c2ccc(Cc3cc(C(=O)N[C@H]4CCOC[C@@H]4O)nn3-c3ccccc3)cc2)cn1 [17b]
4 | 75 ± 7.6 | 0.562 | 71 ± 4.1 | 1.2 |  |  | Cn1cc(-c2ccc(Cc3cc(C(=O)N[C@H]4CCOC[C@@H]4O)nn3C3CCOC3)cc2)cn1 (stereo partly shown) [17j]
5 | 80 ± 7.1 | 1.48 | 73 ± 3.1 | 4.9 |  |  | Cn1cc(-c2ccc(Cc3cc(C(=O)N[C@H]4CCOC[C@@H]4O)nn3C3CCCCC3)cc2)cn1 [17h]
6 | 76 ± 4.2 | 1.91 | 78 ± 8.8 | 2.95 |  |  | Cn1cc(-c2ccc(Cc3cc(C(=O)NC4CC5(COC5)C4)nn3C3CCCC3)cc2)cn1 [17p]
7 | 80 ± 3.8 | 2.51 | 70 ± 1.5 | 3.02 |  |  | Cn1cc(-c2ccc(Cc3cc(C(=O)N[C@H]4CCCC[C@@H]4O)nn3-c3ccccc3)cc2)cn1 [17a]
8 | 81 ± 3.8 | 0.724 | 79 ± 4.4 | 0.661 |  |  | Cn1cc(-c2ccc(Cc3cc(C(=O)N[C@H]4CCCCC[C@@H]4O)nn3C3CCCC3)cc2)cn1 [17l]
9 | 57 ± 4.6 | > 10 |  | > 10 |  |  | Cn1cc(-c2ccc(Cc3cc(C(=O)N[C@H]4CCOC[C@@H]4O)nn3Cc3ccccc3)cc2)cn1 [17f]
10 |  | 0.794 |  | 1.26 |  |  | CNC(=O)c1ccc(Cc2cc(C(=O)N[C@H]3CCOC[C@@H]3O)nn2C2CCCC2)cc1 [compound 21]
11 | 73 ± 5.3 | 1.58 | 76 ± 10 | 2.14 |  |  | Cn1cc(-c2ccc(Cc3cc(C(=O)N[C@H]4CCC[C@@H]4O)nn3C3CCCC3)cc2)cn1 [17m]
12 | 80 ± 3.2 | 3.47 | 72 ± 2.6 | 4.57 |  |  | Cn1cc(-c2ccc(Cc3cc(C(=O)N[C@H]4CCCCC[C@@H]4O)nn3-c3ccccc3)cc2)cn1 [17e]
13 | 69 ± 4.3 | > 10 | 58 ± 3.0 | > 10 |  |  | Cn1cc(-c2ccc(Cc3cc(C(=O)N[C@H]4CCC[C@@H]4O)nn3-c3ccccc3)cc2)cn1 [17c]
14 | 72 ± 3.8 | 4.17 | 67 ± 2.5 | 6.61 |  |  | Cn1cc(-c2ccc(Cc3cc(C(=O)N[C@@H]4CCOC[C@H]4F)nn3C3CCCC3)cc2)cn1 [17n]
15 | 50 ± 3.7 | > 10 | 46 ± 1.1 | > 10 |  |  | Cn1cc(-c2ccc(Cc3cc(C(=O)NC4CC(F)C4)nn3C3CCCC3)cc2)cn1 (stereo not shown) [17o]
